One assay addresses T1, human ALX receptor (Homo sapiens, UniProt P25090).
T1 construct: expressed in transfected cells; host or cells: HEK293 (HEK293-hALXR-Gα16)
T1 sequence (P25090 1-351): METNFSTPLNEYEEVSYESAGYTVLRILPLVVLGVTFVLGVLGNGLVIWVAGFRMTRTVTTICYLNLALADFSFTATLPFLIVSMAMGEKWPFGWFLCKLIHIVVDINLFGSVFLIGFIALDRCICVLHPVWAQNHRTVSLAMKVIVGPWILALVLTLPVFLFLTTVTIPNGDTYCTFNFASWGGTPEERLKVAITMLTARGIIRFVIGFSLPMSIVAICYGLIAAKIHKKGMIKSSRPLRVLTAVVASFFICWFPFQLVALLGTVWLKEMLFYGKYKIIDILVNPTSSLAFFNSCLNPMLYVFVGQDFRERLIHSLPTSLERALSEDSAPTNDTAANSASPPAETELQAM
Description: Intracellular calcium measurements (FLIPR), agonistic activity in HEK293-hALXR-Gα16 cells. The settings on record: Fluo-4 calcium FLIPR, normalized to WKYMVm 10 nM. It is filed as cell-based. A digest of the protocol: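 Agonist-induced calcium flux was recorded by FLIPR (488/540 nm) in HEK293-hALXR-Gα16 cells pre-loaded with Fluo-4 AM (1 μM, 60 min, 37°C). Peak signal above baseline, after subtracting buffer addition, was expressed relative to WKYMVm at 10 nM final.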

A further assay has as its target T2, human FPRL2 (Homo sapiens, UniProt P25089).
T2 construct: expressed in transfected cells; host or cells: HEK293 (HEK293-hFPRL2-Gα16)
T2 sequence (P25089 1-353): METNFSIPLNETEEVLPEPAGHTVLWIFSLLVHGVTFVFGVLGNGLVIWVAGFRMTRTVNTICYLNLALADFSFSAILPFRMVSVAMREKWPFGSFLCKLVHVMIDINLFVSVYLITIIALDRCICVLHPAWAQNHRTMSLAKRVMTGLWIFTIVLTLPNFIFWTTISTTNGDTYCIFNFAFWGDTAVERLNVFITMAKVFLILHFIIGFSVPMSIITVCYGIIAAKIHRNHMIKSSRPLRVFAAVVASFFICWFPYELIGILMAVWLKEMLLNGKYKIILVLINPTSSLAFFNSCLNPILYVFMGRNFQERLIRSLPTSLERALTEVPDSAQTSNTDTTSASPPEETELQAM
Description: Intracellular calcium measurements (FLIPR), agonistic activity in HEK293-hFPRL2-Gα16 cells. The settings on record: Fluo-4 calcium FLIPR, normalized to GLY14-Humanin 100 nM. It is filed as cell-based. The procedure, abridged:
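Peak values after baseline subtraction are expressed relative to 100 nM Gly14-Humanin; compounds diluted in assay buffer from 10 mM DMSO stocks.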
For orientation: Calcium flux is commonly read through the fluorescence of an indicator in the cells.

Structures are written as SMILES.

As to `NS(=O)(=O)c1ccc(CCNC(=O)[C@H]2[C@H](C(=O)Nc3ccc(Br)cc3)[C@@H]3C=C[C@H]2C32CC2)cc1` (racemic) [Example 61, (5R*)—N^5-(4-Bromophenyl)-(6R*)—N^6-(2-(4-aminosulfonyl-phenyl)-ethyl)-(4S*,7R*)-[4,7-ethenylene-spiro[2.4]heptane]-5,6-dicarboxamide], the EC50 came to 23 nM at human ALX receptor and 2270 nM at human FPRL2.
The matching figures for `CNC(=O)CCNC(=O)[C@H]1[C@H](C(=O)Nc2ccc(Br)cc2)[C@@H]2C=C[C@H]1C21CC1` (racemic) [Example 223, (5R*)—N^5-(4-Bromophenyl)-(6R*)—N^6-(3-methylamino-3-oxopropyl)-(4S*,7R*)-[4,7-ethenylene-spiro[2.4]heptane]-5,6-dicarboxamide]: 3.2 nM and 1210 nM.
`Cc1ccc(C)c(CNC(=O)[C@H]2[C@H](C(=O)NCCCCN3CCCC3)[C@H]3C=C[C@@H]2C32CC2)c1` (racemic) [Example 368, (5R*)—N^5-(2,5-Dimethylphenyl-methyl)-(6R*)—N^6-(4-pyrrolidino-butyl)-(4S*,7R*)-[4,7-ethenylene-spiro[2.4]heptane]-5,6-dicarboxamide]: the EC50 is 11100 nM on human ALX receptor and 255 nM on human FPRL2.
The matching figures for `Cc1nc(CC(=O)NC[C@H]2[C@H](C(=O)Nc3ccc(Br)cc3)[C@@H]3C=C[C@H]2C32CC2)cs1` (racemic) [Example 180, (5R*)—N^5-(4-Bromo-phenyl)-(6R*)-6-[(2-(2-methyl-thiazol-4-yl)-acetylamino)-methyl]-(4S*,7R*)-[4,7-ethenylene-spiro[2.4]heptane]-5-carboxamide]: 252 nM and 888 nM.
The matching figures for `O=C(NCCc1ccccn1)[C@H]1[C@H](C(=O)NCCc2ccc(Cl)cc2)[C@@H]2C=C[C@H]1C21CC1` [Example 389, (5R)—N^5-(2-(4-Chlorophenyl)ethyl)-(6R)—N^6-(2-(pyridin-2-yl)ethyl)-(4S,7R)-[4,7-ethenylene-spiro[2.4]heptane]-5,6-dicarboxamide]: greater than 25000 nM and 554 nM.
The matching figures for `O=C(NCCCn1ccnc1)[C@H]1[C@H](C(=O)Nc2ccc(Br)cc2)[C@@H]2CC[C@H]1C21CC1` (racemic) [Example 108, (5R*)—N^5-(4-Bromophenyl)-(6R*)—N^6-(3-(1H-imidazol-1-yl)-propyl)-(4S*,7R*)-[4,7-ethylene-spiro[2.4]heptane]-5,6-dicarboxamide]: 4.1 nM and 1480 nM.
With `COc1ccc(NC(=O)C2C(C(=O)NCCC(N)=O)C3C=CC2C32CC2)cc1` [Example 290, (5R)—N^5-(4-Methoxyphenyl)-(6R)—N^6-(3-amino-3-oxopropyl)-(4S,7R)-[4,7-ethenylene-spiro[2.4]heptane]-5,6-dicarboxamide], the figures for the EC50 at human ALX receptor and at human FPRL2 were 32 nM and 1440 nM, respectively.
Turning to `O=C(NC1CCCNC1)[C@H]1[C@H](C(=O)Nc2ncc(Br)s2)[C@@H]2CC[C@H]1C21CC1` (stereo partly drawn) [Example 415, (5R)—N^5-(5-Bromothiazol-2-yl)-(6R)—N^6-(piperidin-3-yl)-(4S,7R)-[4,7-ethylene-spiro[2.4]heptane]-5,6-dicarboxamide], the EC50 amounted to 9.1 nM on human ALX receptor and 354 nM on human FPRL2.
The matching figures for `CC(C)(C)OC(=O)NCCNC(=O)C1C(C(=O)Nc2ccc(Br)cc2)C2C=CC1C21CC1` (stereo not drawn) [Example 27, (5R*)—N^5-(4-Bromophenyl)-(6R*)—N^6-(2-tert-butoxycarbonyl-amino-ethyl)-(4S*,7R*)-[4,7-ethenylene-spiro[2.4]heptane]-5,6-dicarboxamide]: 4.2 nM and 1960 nM.
The matching figures for `NC(=O)CCNC(=O)[C@H]1[C@H](C(=O)NCc2ccc(Br)cc2)[C@@H]2CC[C@H]1C21CC1` [Example 291, (5R)—N^5-(4-Bromophenyl-methyl)-(6R)—N^6-(3-amino-3-oxopropyl)-(4S,7R)-[4,7-ethylene-spiro[2.4]heptane]-5,6-dicarboxamide]: 113 nM and greater than 25000 nM.

A word on the EC50: it is the concentration giving half of the maximal effect.

The values are drawn from patent publication US8563714B2, “Bridged spiro [2.4] heptane derivatives as ALX receptor and/or FPRL2 agonists” (Actelion Pharmaceuticals Ltd., priority 2009, dated 2013).
